How the values were obtained:
human wildtype CFTR = details: cell cultures, cited from earlier work
tear volume in mice = details: delivered topically; cited from earlier work
[1] = system: lacrimal gland ablation models in mice; parameters: method as in PMID 26842854; details: cited from earlier work
ENaC [2] = experiment: Ocular surface potential difference (PD) in vivo, amiloride-sensitive sodium channel; details: rabbit in vivo, amiloride 100 μM, average
Procedure: (§1) Open-circuit transepithelial potential difference (PD, in mV) at the ocular surface was measured continuously in anesthetized rabbits using a procedure modified from that established in mice.[8] Rabbits were intubated and anesthetized with isoflurane, and respiratory rate, blood pressure, and body temperature were monitored. For PD recording, solutions (see below) were serially perfused at 10 mL/min through PE-90 plastic tubing using a gravity multireservoir pinch-valve system (ALA Scientific, Westbury, NY, USA) and a variable-flow peristaltic pump (medium flow model; Thermo Fisher Scientific, Fair Lawn, NJ, USA). A perfusion catheter was fixed onto an adjustable stereotaxic frame with the tip immersed in solution contacting the ocular surface, as diagrammed in Figure 2A. Excess fluid was aspirated by continuous suction (low-powered wall vacuum) using 1/8-inch tubing (inner diameter 3/32 inch) placed 3 mm from the lateral canthus to maintain near-constant perfusate volume in contact with cornea, bulbar conjunctiva, and palpebral conjunctiva without fluid runoff. The measuring electrode contacted the perfusion catheter and was connected to a high-impedance voltmeter (IsoMilivolt Meter; World Precision Instruments, Sarasota, FL, USA). The reference electrode was grounded using a winged, 25-gauge needle filled with normal saline inserted subcutaneously in the abdomen. […]

ENaC [3] = experiment: Short-circuit current in freshly isolated conjunctiva, amiloride; format: biochemical; details: ex vivo rabbit conjunctiva, 10 μM
Procedure: (§2) Short-circuit current was measured in freshly isolated rabbit conjunctiva, as described[16] with modification. Rabbits were euthanized by injection of 150 mg/kg euthasol into the marginal ear vein. The entire eyeball with eyelids intact was removed from the orbit to preserve conjunctival epithelial integrity. Within 10 minutes, a sheet of forniceal and palpebral conjunctiva was dissected, mounted onto a P2304 tissue slider (Physiologic Instruments, San Diego, CA, USA), and placed into the Ussing chamber. The apical and basolateral chambers contained (in mM): 120 NaCl, 3 KCl, 1 CaCl2, 1 MgCl2, 10 glucose, 25 NaHCO3, and 5 HEPES, pH 7.4. Solutions were bubbled with 95% O2/5% CO2 and maintained at 37°C. Hemichambers were connected to a DVC-1000 voltage clamp (World Precision Instruments Inc., Sarasota, FL, USA) via Ag/AgCl electrodes and 3 M KCl agar bridges.

dry eye = system: dry eye; parameters: method as in PMID 15502479; details: United States; cited from earlier work
[4] = target: T1, CFTR chloride conductance at the rabbit ocular surface (Oryctolagus cuniculus, UniProt Q00554); experiment: Ocular surface potential difference (PD) in vivo, CFTR
T1 construct: from tissue; host or cells: ocular surface (cornea, bulbar and palpebral conjunctiva) of living anesthetized rabbits
Procedure: as §1

[5] = target: T2, CFTR in rabbit forniceal and palpebral conjunctiva (Oryctolagus cuniculus, UniProt Q00554); experiment: Short-circuit current in freshly isolated conjunctiva, CFTR; format: biochemical; details: ex vivo rabbit conjunctiva
T2 construct: a sheet of forniceal and palpebral conjunctiva was dissected; from tissue; host or cells: freshly isolated rabbit forniceal and palpebral conjunctiva in an Ussing chamber
Procedure: as §2, with “Solutions were bubbled with 95% O2/5% CO2 and maintained at 37°C.” left out

T2 sequence (Q00554 whole entry): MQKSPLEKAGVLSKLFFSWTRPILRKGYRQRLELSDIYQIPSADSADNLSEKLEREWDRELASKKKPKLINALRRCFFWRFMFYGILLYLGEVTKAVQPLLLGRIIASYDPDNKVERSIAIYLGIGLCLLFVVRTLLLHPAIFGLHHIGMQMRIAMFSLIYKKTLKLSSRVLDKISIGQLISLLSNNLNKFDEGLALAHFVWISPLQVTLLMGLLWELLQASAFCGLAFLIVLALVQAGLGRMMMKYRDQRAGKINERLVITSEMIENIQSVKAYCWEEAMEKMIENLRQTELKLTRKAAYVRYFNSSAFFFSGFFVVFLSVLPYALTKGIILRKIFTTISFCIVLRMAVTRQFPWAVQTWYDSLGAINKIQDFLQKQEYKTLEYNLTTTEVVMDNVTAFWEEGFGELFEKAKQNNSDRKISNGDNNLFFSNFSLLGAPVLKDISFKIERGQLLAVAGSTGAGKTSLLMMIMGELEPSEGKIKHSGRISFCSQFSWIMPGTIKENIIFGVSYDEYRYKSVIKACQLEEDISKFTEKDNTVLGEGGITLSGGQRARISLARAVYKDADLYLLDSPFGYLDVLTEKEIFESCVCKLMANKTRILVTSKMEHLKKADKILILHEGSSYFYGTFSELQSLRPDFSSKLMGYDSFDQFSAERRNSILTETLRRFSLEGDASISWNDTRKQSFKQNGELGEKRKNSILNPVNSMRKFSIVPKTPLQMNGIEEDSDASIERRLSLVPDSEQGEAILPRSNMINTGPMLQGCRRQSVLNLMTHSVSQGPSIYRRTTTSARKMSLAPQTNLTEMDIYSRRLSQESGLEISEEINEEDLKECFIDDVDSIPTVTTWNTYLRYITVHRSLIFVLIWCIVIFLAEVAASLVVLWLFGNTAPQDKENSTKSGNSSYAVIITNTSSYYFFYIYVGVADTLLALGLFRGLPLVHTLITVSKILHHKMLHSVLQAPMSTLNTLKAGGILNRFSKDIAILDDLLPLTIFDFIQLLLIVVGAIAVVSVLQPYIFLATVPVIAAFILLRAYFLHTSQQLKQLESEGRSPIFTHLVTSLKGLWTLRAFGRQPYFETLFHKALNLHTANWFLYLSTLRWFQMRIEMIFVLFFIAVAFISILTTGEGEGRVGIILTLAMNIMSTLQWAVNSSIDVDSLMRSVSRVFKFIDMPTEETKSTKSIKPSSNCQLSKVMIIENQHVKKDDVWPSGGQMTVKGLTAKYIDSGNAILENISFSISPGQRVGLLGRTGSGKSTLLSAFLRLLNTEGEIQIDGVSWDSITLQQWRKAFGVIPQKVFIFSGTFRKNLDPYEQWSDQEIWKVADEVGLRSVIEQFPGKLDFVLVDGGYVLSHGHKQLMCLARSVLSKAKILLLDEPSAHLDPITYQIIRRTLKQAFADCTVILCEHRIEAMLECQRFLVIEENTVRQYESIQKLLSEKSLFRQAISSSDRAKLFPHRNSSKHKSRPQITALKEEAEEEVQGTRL
T1 sequence (Q00554 whole entry): as above

CCN(CC)c1nc(Nc2ccccc2)nc(OC(C(F)(F)F)C(F)(F)F)n1 [CFTRact-K089]
Extent of CFTR activation (human wildtype CFTR): fully activated CFTR | EC50 (human wildtype CFTR; read-out: EC50 of CFTR activation): ~250 nM | Duration of increase in tear volume (tear volume in mice): 4 h | Effect on tear volume (tear volume in mice): doubled tear volume | Effect on pathology when administered after development of dry eye [1]: reversed pathology | Effect on corneal epithelial disruption ([1]; three times daily): prevented corneal epithelial disruption | Effect on tear volume ([1]; three times daily): normalized tear volume

N=C(N)NC(=O)c1nc(Cl)c(N)nc1N [amiloride]
Depolarization of ocular surface PD (ENaC [2]): ~5 mV | Effect on short-circuit current (ENaC [3]): no amiloride effect | Effect on short-circuit current (ENaC [3]; listed as Amiloride): no effect

O=c1ccn([C@@H]2O[C@H](COP(=O)(O)OP(=O)(O)OP(=O)(O)OP(=O)(O)OC[C@H]3O[C@@H](n4ccc(=O)[nH]c4=O)[C@H](O)[C@@H]3O)[C@@H](O)[C@H]2O)c(=O)[nH]1 [diquafosol]
Efficacy in phase III trials (dry eye): did not show efficacy

C=C[C@@]1(C)CC(=O)[C@]2(O)[C@@]3(C)[C@@H](O)CCC(C)(C)[C@@H]3[C@H](O)[C@H](OC(C)=O)[C@@]2(C)O1 [forskolin]
Further change in ocular surface PD on top of CFTRact-K267 ([4]; forskolin 20 μM after 10 μM CFTRact-K267): minimally further increased | CFTR activation (short-circuit current) ([5]; high concentration): Maximal CFTR activation | Change in short-circuit current ([5]; low concentration 25 nM): small increase in current

CFTRinh-172
Reversal of PD changes ([4]; CFTRinh-172 10 μM in final perfusion solution): largely reversed | Effect on increases in short-circuit current ([5]; CFTR inhibitor added last): inhibited

From publication PMC5584707, “Pro-Secretory Activity and Pharmacology in Rabbits of an Aminophenyl-1,3,5-Triazine CFTR Activator for Dry Eye Disorders” (Investigative Ophthalmology & Visual Science, 2017)
